Reference: PMC5772648, “Targeted NUDT5 inhibitors block hormone signaling in breast cancer cells” (Nature Communications, 2018)

Legend:
Format in all cases: cell-based
[1] = biological target: T1, NUDT5 in HL-60 cells (Homo sapiens, UniProt Q9UKK9); assay: CETSA melt curve (apparent Tagg)
T1 construct: endogenous in cells; host or cells: HL-60
Procedure: For CETSA experiments with cells treated in culture, 1 × 10^6 HL-60 were treated with DMSO (0.1 % v/v final) or 20 µM compound for 3 h at 37 °C and 5% CO2 in a humidified incubator. T47D^WT cells were treated instead with 80 µM TH1659, 15 µM TH5423/5424 and 1.5 µM TH5427. The cells were harvested, washed twice with PBS and resuspended in TBS with protease inhibitors, as above. Heating was identical as before, except that immediately following heating, the cell suspensions were snap frozen in a dry ice/ethanol bath and freeze-thawed, as previously, to lyse cells. Centrifugation at 20 000 × g for 20 min at 4 °C removed cellular debris and protein aggregates, and lysates were prepared for western blotting. […]
Supplementary Figure 6: Thermal shift of NUDT5 with TH5427 by CETSA.
CETSA melt curve comparing DMSO-treated HL-60 cells to those treated with 2.5 or 20 µM TH5427. All points are shown for n=2 experiments and are normalized to SOD1 band intensity as a loading control. Representative, cropped western blots are shown. Apparent Tagg temperatures are shown below. […]

[2] = biological target: T1, NUDT5 in HL-60 cells; assay: drug affinity responsive target stability (DARTS); conditions: 0.74 and 2.2 µM, 4 h, HL-60 cells in culture
Procedure: Target engagement was also determined by drug affinity responsive target stability (DARTS)[33]. HL-60 cells were treated in culture with DMSO (0.1% v/v) or TH5427 at 0.7 or 2.2 µM for 4 h. Following two PBS washes, the cells were lysed with M-PER extraction buffer (ThermoFisher) supplemented with protease inhibitor cocktail (Roche). The lysates were divided into 20 µg aliquots and followed by digestion with pronase at the indicated protein to pronase ratios for 30 min at room temperature. Samples were prepared for western blotting and NUDT5 stabilization was compared with SOD1 as a loading control.

[3] = biological target: T2, NUDT5 in T47D cells (Homo sapiens, UniProt Q9UKK9); assay: intact cell CETSA in T47D cells; conditions: 1.5 µM TH5427, 83 °C
T2 construct: endogenous in cells; host or cells: T47D (T47D^WT)
Procedure: For CETSA experiments with cells treated in culture, 1 × 10^6 HL-60 were treated with DMSO (0.1 % v/v final) or 20 µM compound for 3 h at 37 °C and 5% CO2 in a humidified incubator. T47D^WT cells were treated instead with 80 µM TH1659, 15 µM TH5423/5424 and 1.5 µM TH5427. The cells were harvested, washed twice with PBS and resuspended in TBS with protease inhibitors, as above. Heating was identical as before, except that immediately following heating, the cell suspensions were snap frozen in a dry ice/ethanol bath and freeze-thawed, as previously, to lyse cells. Centrifugation at 20 000 × g for 20 min at 4 °C removed cellular debris and protein aggregates, and lysates were prepared for western blotting.

[4] = tested on: T47D^M cells; assay: progesterone-dependent gene expression by RT-qPCR; conditions: 1.5 µM, 6 h R5020
Procedure: For hormone and inhibitor treatments, normal T47D^WT cells or cells containing a single copy of luciferase under the control of the mouse mammary tumor virus (MMTV) promoter (T47D^M) were used[23]. Prior to hormone induction, cells were grown in phenol red-free RPMI medium supplemented with 10% dextran-coated charcoal-treated FBS (DCC/FBS). After 16 h in serum-free conditions, cells were pre-incubated with DMSO (vehicle) or NUDT5 inhibitor for 2 h at the indicated dose before addition of R5020 (10 nM) or vehicle (ethanol, EtOH) for the allotted time.
Total RNA and cDNA were prepared using an RNeasy Plus kit (Qiagen) and Superscript II kit (Invitrogen), respectively, according to the manufacturers’ instructions. Quantification of mRNA abundance of specific gene products was performed by RT-qPCR (LightCycler FastStart DNA Master SYBR Green I), normalized to GAPDH and expressed as relative RNA abundance over time zero (no R5020 treatment). Primer sequences are available upon request.

Cn1c(=O)c2c(nc(N3CCNCC3)n2Cc2nnc(-c3ccc(Cl)c(Cl)c3)o2)n(C)c1=O [TH5427]
shift of NUDT5 apparent Tagg [1]: ≈ 8 °C
NUDT5 stabilization against protease degradation [2]: stabilized NUDT5 against exogenous protease degradation
NUDT5 stabilization in T47D cells [3]: demonstrated the best ability to stabilize NUDT5 in T47D cells
progestin-dependent gene expression, EGFR and MMTV-luc [4]: significantly disrupted EGFR and MMTV-luc expression
progestin-independent gene expression, CCNB1 and RBM24 [4]: did not affect the expression of CCNB1 or RBM24
